PMC8266232, “Design, synthesis, and analysis of antiproliferative and apoptosis-inducing activities of nitrile derivatives containing a benzofuran scaffold: EGFR inhibition assay and molecular modelling study” (Journal of Enzyme Inhibition and Medicinal Chemistry, 2021)

What was measured:
[1] = tested on: HePG2 cells (hepatocellular carcinoma); assay: MTT antiproliferative assay, HePG2; format: cell-based, human; conditions: Homo sapiens, HepG2, MTT assay, HePG2, triplicate; read-out: In vitro cytotoxicity IC50, HePG2
Experimental: (§1) The in vitro antiproliferative activity of all synthesised compounds was evaluated by an MTT assay according to the reported method[47]^,[48].
(§2) 2. Experimental procedure
(§3) 2.1. Antiproliferative screening
(§4) The in vitro antiproliferative activity of all synthesized compounds was evaluated by an MTT assay according to the reported method using five different human cancer cell lines, including […]
(§5) cervical carcinoma (HeLa), and human prostate cancer (PC-3). The cell lines were obtained from ATCC via a holding company for biological products and vaccines (VACSERA), Cairo, Egypt. The MTT assay is a colorimetric assay used for measuring the cellular growth based on the reduction of the yellow MTT to a purple formazan derivative by mitochondrial succinate dehydrogenase in viable cells. The color intensity of the formazan dye is correlated to the number of viable cells. The […]
(§6) IC50% values were calculated using dose response curves. The percentage of relative cell viability was calculated as (A570 of treated samples)/(A570 of untreated sample) × 100. The cytotoxic activity was defined as the concentration of the compound that caused 50% growth inhibition compared with the growth of an untreated cell. […]

[2] = tested on: HCT-116 cells (colorectal carcinoma); assay: MTT antiproliferative assay, HCT-116; format: cell-based, human; conditions: Homo sapiens, HCT-116, MTT assay, HCT-116, triplicate; read-out: In vitro cytotoxicity IC50, HCT-116
Experimental: as §1, §2, §3, §4, §5, §6

MCF-7 cells [3] = assay: Annexin V-FITC/PI apoptosis assay, MCF-7; conditions: MCF-7, 10 µM, 24 h
[4] = tested on: PC3 cells (human prostate carcinoma); assay: MTT antiproliferative assay, PC3; format: cell-based; conditions: PC-3, PC3, triplicate, read-out: In vitro cytotoxicity IC50, PC3
Experimental: as §1, §2, §3, §4, §5, §6

[5] = tested on: human caspase-3 (active) in MCF-7 cells; assay: Caspase-3 ELISA in MCF-7 cells; format: cell-based
Experimental: Caspases are critical mediators of programmed cell death, that is, apoptosis. Caspase-3 is important in processes involving dissociation of the cell and the formation of the apoptotic element; therefore, it is regarded as one of the best biochemical hallmarks of apoptosis. […] The concentration of active caspase-3 was measured using the ELISA technique. In addition, the fluorescence density produced by the tested compounds is illustrated in Figure 4. […] The level of caspase-3 increased 5.7-fold compared to the control. Moreover, a considerable 7.3-fold increase in the caspase-3 level was detected following the treatment of the MCF-7 cells with compound 11. The bioluminescent intensities of caspase-3 indicated the apoptotic activity of compounds 3 and 11.
Afterward, measure luminescence using the
tested in triplicates.[36-38].
active caspase-3 [49]. […] The tested
Subsequently, 100 µL of an
incubated for 30 min at room temperature.
chromogen. […] The intensity of the resulting colored

[6] = tested on: MCF-7 cells (human breast adenocarcinoma); assay: MTT antiproliferative assay, MCF-7; format: cell-based; conditions: Homo sapiens, MCF7, MTT assay, MCF-7, triplicate; read-out: In vitro cytotoxicity IC50, MCF-7
Experimental: as §1, §2, §3, §4, §5, §6

EGFR TK = molecular target: T1, EGFR TK (Homo sapiens, UniProt P00533); assay: EGFR TK inhibition assay (luminescent, Kinase-Glo MAX); format: biochemical
T1 construct: add 20 μl of diluted EGFR enzyme and incubate at 30°C for 40
Experimental: 2.2. Epidermal growth factor inhibition assay
In vitro luminescent EGFR tyrosine kinase assay, using Kinase-Glo® MAX as a detection reagent using DP‐Glo™ reagent that measures the adenosine diphosphate (ADP) formed from a kinase reaction, were performed; this luminescent signal positively correlates with ADP amount and kinase activity. In 17 μl of distilled water, 6 μl of Kinase assay buffer and 1 μl ATP and 1 μl PTK substrate were mixed (master mixture). In every well, mix 20 μl of the master mixture and 5 μl of Inhibitor solution (Test Inhibitor) for positive control, and use 5 μl of the same solution without inhibitor (Inhibitor buffer) as the blank solution; add 20 μl of diluted EGFR enzyme and incubate at 30°C for 40

WI38 normal cell = assay: MTT cytotoxicity on normal fibroblast cells; format: cell-based; conditions: Homo sapiens, WI-38; MTT assay, non tumour normal cell WI38
MCF-7 cells [7] = assay: Cell cycle analysis by PI flow cytometry, MCF-7; conditions: MCF-7, 10 µM, 24 h
[8] = tested on: HeLa cells (cervical carcinoma); assay: MTT antiproliferative assay, HeLa; format: cell-based, human; conditions: Homo sapiens, triplicate, read-out: In vitro cytotoxicity IC50, HeLa
Experimental: as §1, §2, §3, §4, §5, §6

T1 sequence (P00533 25-1210): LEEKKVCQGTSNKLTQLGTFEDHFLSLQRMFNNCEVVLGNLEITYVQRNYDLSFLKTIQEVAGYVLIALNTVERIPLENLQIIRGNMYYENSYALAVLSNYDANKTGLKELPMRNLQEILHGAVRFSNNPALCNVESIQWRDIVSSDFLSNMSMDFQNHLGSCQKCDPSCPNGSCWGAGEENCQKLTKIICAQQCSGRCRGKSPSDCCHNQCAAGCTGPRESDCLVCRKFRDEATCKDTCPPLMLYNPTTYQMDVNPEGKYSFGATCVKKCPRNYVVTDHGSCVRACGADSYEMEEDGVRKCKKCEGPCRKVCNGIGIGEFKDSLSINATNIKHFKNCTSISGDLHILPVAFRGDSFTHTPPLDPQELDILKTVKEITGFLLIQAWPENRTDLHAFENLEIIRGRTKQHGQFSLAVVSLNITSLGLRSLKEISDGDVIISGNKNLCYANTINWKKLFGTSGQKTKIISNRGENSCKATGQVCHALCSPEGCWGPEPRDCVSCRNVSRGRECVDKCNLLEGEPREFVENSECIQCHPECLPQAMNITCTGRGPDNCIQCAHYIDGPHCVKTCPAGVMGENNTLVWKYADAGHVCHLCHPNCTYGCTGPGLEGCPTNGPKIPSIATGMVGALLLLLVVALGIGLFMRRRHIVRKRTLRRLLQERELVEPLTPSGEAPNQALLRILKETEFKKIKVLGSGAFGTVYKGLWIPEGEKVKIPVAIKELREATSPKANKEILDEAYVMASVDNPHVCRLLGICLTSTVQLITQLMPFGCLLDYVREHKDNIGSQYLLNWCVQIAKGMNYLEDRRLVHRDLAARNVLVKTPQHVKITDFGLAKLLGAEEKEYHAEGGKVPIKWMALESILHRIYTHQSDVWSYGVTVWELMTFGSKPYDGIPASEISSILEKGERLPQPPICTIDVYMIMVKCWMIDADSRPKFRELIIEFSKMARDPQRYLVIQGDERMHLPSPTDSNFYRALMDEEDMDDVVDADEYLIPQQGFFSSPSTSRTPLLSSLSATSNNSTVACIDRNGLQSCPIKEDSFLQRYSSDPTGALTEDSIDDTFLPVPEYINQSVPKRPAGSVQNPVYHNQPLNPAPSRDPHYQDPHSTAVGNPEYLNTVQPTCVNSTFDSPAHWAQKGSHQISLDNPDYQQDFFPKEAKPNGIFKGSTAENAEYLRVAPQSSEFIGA

`N#Cc1c(-c2cc3ccccc3o2)ccnc1NCCc1ccccc1` [Compound 11, 4-(Benzofuran-2-yl)-2-(phenethylamino)nicotinonitrile] was tested, and the IC50 [1] was 20.4 ± 1.6 µM, the IC50 [2] was 46.1 ± 2.7 µM and the Necrosis (MCF-7 cells [3]; control 0.15) was 1.23%. For the same compound, the Early apoptosis (MCF-7 cells [3]; control 0.16) was 6.89%, the Late apoptosis (MCF-7 cells [3]; control 0.24) was 8.13% and the “Apoptosis, Total” value (MCF-7 cells [3]; control 0.55) was 16.25%. The IC50 [4] was 18.8 ± 1.5 µM, the “Caspase-3 Conc.” value ([5]; ELISA, control 60.7) was 440.08 pg/mL and the “Caspase-3 level, Fold” value ([5]; compared to the control) was 7.3 fold. For the same compound, the IC50 [6] was 14.6 ± 1.3 µM, the IC50 (EGFR TK) was 0.81 µM and the IC50 (WI38 normal cell) was 94.5 ± 5.13 µM. For the same compound, the “%Pre/G1” value (MCF-7 cells [7]; control 0.55, '% Apoptosis' in Figure 6A) was 16.25%, the “%G2/M” value (MCF-7 cells [7]; control 3.66) was 15.28% and the “%S” value (MCF-7 cells [7]; control 27.37) was 21.36%. The “%G0/G1” value (MCF-7 cells [7]; control 66.42) was 47.11% and the IC50 [8] was 32.1 ± 1.9 µM.
